# Patent publication US20030203356A1, “RNase L activator-antisense complexes” (priority 2002, published 2003)
# Like-named read-outs stand apart in the source and are kept apart here. Oligonucleotides are written 5' to 3', each unit as a sugar letter and its base; * is a phosphorothioate linkage, no mark a phosphodiester; rarer units and linkages stand in square brackets, end groups in braces. Plain capitals give the bases only. {spA4} = thiophosphorylated 2',5'-linked tetraadenylate (2-5A), RNase L activator; {spA3} = thiophosphorylated 2',5'-linked triadenylate (2-5A), RNase L activator; {S9} = spacer 9 linker, triethylene glycol phosphate; {BU2} = two butanediol phosphate linkers; m = 2'-O-methyl
# System: RSV
# Assay: anti-RSV activity in infected HEp-2 cells (reduction of cytopathic effects, neutral red uptake assay)
# Type: cell-based, Respiratory Syncytial Virus
# Source text: A comparison of the efficacies of RBI245 treatment and conventional ribarvirin treatment can be obtained by determining the RSV-inhibitory concentration and the cytotoxic concentration of each compound. Cultures of the human laryngeal carcinoma cell line HEp-were established and infected with an MOI=0.02. Treatment with either ribavirin or RBI245 was begun one hour post-infection. The effects of treatment on RSV infection were reported as an EC50, the concentration at which there was a 50% reduction in the observable cytopathic effects of infection. The results of the treatment of HEp-2 cells with RBI245, ribavirin, and other activator-antisense complexes are shown in FIG. 1 and summarized in Table 2. […] Therefore, the activity of RBI245 in vitro is more than 1000-fold better than ribavarin, the only approved drug for the treatment of RSV. No toxicity was found for any of the 2-5A oligonucleotide compounds up to the maximum dosage tested (3.2 μM).
# [1] = HEp-2 cells infected with RSV, MOI=0.02, treatment begun one hour post-infection, read-out: EC50 in μM (50% Effective dose based on neutral red uptake assay)
compound,measurement,setting,value
"spA4-BU2-(GsAsTsAGAAATAGAAAsGsCsA)m-3′ (GATAGAAATAGAAAGCA; antisense; all 2'-O-methyl, linkages s3 o10 s3 (s phosphorothioate, o phosphodiester), 5' {spA4}-{BU2}, T or U not given here; 5' 2-5A activator attached via linker) [RBI066, scrambled control, reference compound]",EC50,[1],> 3.2 µM
"NC(=O)c1ncn([C@@H]2O[C@H](CO)[C@@H](O)[C@H]2O)n1 [Ribavirin, reference compound]",EC50,"human respiratory syncytial virus, 1 h, HEp-2 cells infected with RSV, MOI=0.02, treatment begun one hour post-infection, read-out: EC50 in μM (50% Effective dose based on neutral red uptake assay)",60 µM
same,EC50,"human respiratory syncytial virus, 1 h, HEp-2 cells, MOI=0.02, treatment one hour post-infection, read-out: EC50, concentration at which there was a 50% reduction in the observable cytopathic effects of infection",60 µM
"5′sp-A2′s5′A2′s5′A2′s5′A2′-p(CH2CH2O)3-p-5′(AsAsAsAAUGGGGCAAAsUsAsA)m03′ (antisense {spA4}-{S9}-mA*mA*mA*mAmAmUmGmGmGmGmCmAmAmA*mU*mA*mA; 5' 2-5A activator attached via triethylene glycol linker, further chemistry not given here) [RBI245]",EC50,"HEp-2 cells, MOI=0.02, treatment one hour post-infection, read-out: EC50, concentration at which there was a 50% reduction in the observable cytopathic effects of infection",0.02 µM
same,anti-RSV activity in vitro relative to ribavirin,ratio of in vitro potency versus ribavirin,more than 1000 fold
spA4-BU2-(AsAsAsAAUGGGGCAAAsUsAsA)m3′ ({spA4}-{BU2}-mA*mA*mA*mAmAmUmGmGmGmGmCmAmAmA*mU*mA*mA; antisense; 5' 2-5A activator attached via linker) [RBI034],EC50,[1],0.6 µM
"(spA)3-S9-(AsAsAsAAUGGGGCAsAsA)m-3′ ({spA3}-{S9}-mA*mA*mA*mAmAmUmGmGmGmGmCmA*mA*mA; antisense; 5' 2-5A activator attached via linker) [RBI243, shortened version of 245]",EC50,[1],0.3 µM
